Results reported in paper PMC9022229, “Induction of Paraptosis by Cyclometalated Iridium Complex-Peptide Hybrids and CGP37157 via a Mitochondrial Ca^2+ Overload Triggered by Membrane Fusion between Mitochondria and the Endoplasmic Reticulum” (Biochemistry, 2022).
Like-named read-outs stand apart in the source and are kept apart here. Residues, ends and D or L forms follow the SMILES beside them. *: point of attachment. X1 = O=C(COc1ccc(-c2ccccn2)cc1)NCCCCCCCCN*

Assays:
Format in all cases: cell-based
[1] = system: Jurkat cells; assay: TEM analysis of cytoplasmic vacuolization
Description: The morphological changes in Jurkat cells induced by CGP37157 (Figure 3B) were similar to those induced by 4 (Figure 1B) and confirmed in detail by TEM (transmission electron microscopy). Jurkat cells were treated with CGP37157 (100 μM) for 12 h, prefixed with glutaraldehyde and postfixed with osmium tetroxide (OsO4), and included in Poly 812 resin. The resulting samples were sliced and then observed by TEM. […] Similar TEM images were reported with respect to paraptosis-inducing natural compounds by some research groups: (i) paraptosis in MDA-MB 435S cells,[17] HeLa cells,[18] and Jurkat cells (Figure 4d and in our previous publications)[56]−[58] induced by celastrol, (ii) paraptosis in HeLa cells induced by 8-p-hydroxybenzoyl tovarol,[23] and (iii) paraptosis in A2780 cells and SKOV-3 cells induced by morusin.[22] Therefore, we believe that Jurkat cells undergo vacuolization in the paraptotic processes induced by 4 and CGP37157, as well as celastrol.
In a 1.5 mL Eppendorf tube, Jurkat cells (3.0 × 10^6 cells) were incubated with 4 (5 μM for 3 h), CGP37157 (100 μM for 12 h), and celastrol (1 μM for 24 h) in 10% FBS/RPMI 1640 medium at 37 °C under 5% CO2. After centrifugation (2000 rpm, 3 min, 4 °C), the cells were washed twice with PBS, prefixed with glutaraldehyde (2.5%) at 4 °C for 40 min, and then washed twice with PBS. Osmium tetroxide (1%) was used for postfixation, and the solution was incubated at 4 °C for 30 min. The cells were washed with PBS, included in an agarose gel, and dehydrated by using 50–100% and anhydrous EtOH. The cells were embedded into Poly 812 resin (Nisshin EM Co. Ltd.) at 60 °C for 3 days. The resin was sliced with a glass knife (150 nm thickness) on an ultramicrotome (EM UC6, Leica), and the samples were stained with EM stainer (Nisshin EM Co. Ltd.) and observed on TEM instrument (H-7650, Hitachi) with electron irradiation at 100 kV.

[2] = system: Jurkat cells; assay: Mitochondria-ER membrane fusion, co-staining with MitoTracker Green and ER-Tracker Red
Description: To verify this hypothesis, mitochondria and the ER were stained with both MitoTracker Green and ER-Tracker Red in the presence of 4, CGP37157, and celastrol (Figure 8). Jurkat cells were stained with MitoTracker Green (0.5 μM) and ER-Tracker Red (1 μM) and then treated with 4 (5 μM) for 10–30 min (time-dependent microscopic images are presented in Figure S5). […] With regard to CGP37157 and celastrol, Jurkat cells were stained with MitoTracker Green (0.5 μM) and ER-Tracker Red (1 μM) and then treated with CGP37157 (100 μM) and celastrol (1 μM) for 1–24 h (Figure 8 and Figure S5).
In a 1.5 mL Eppendorf tube, Jurkat cells (2.0 × 10^5 cells) were stained with MitoTracker Green (0.5 μM) for 1 h at 37 °C under 5% CO2 and then ER-Tracker Red (1 μM) for 1 h at 37 °C under 5% CO2 in 10% FBS/RPMI 1640 medium (100 μL). After being washed with PBS, the cells were treated with 4 (5 μM) in 10% FBS/RPMI 1640 medium (100 μL) for 0–30 min at 37 °C under 5% CO2. For CGP37157 and celastrol, Jurkat cells were treated with CGP37157 (100 μM) or celastrol (1 μM) in 10% FBS/RPMI 1640 medium (100 μL) for 0–24 h, after which the cells were stained with MitoTracker Green (0.5 μM) for 1 h at 37 °C under 5% CO2 and then ER-Tracker Red (1 μM) for 1 h at 37 °C under 5% CO2 in PBS. The cells were washed with PBS and observed by confocal microscopy (Fluoview, FV-1000, Olympus) using a Greiner CELLview dish (35 mm × 10 mm). Excitation at 473 nm and emission from 485 to 545 nm were used for MitoTracker Green. Excitation at 559 nm and emission from 570 to 620 nm were used for ER-Tracker Red. The exposure time was 20 μs/pixel.

[3] = system: Jurkat cells; assay: Cytosolic Ca2+ by flow cytometry with Rhod-4
Description: Other characteristic phenomena of paraptosis such as a mitochondrial Ca^2+ overload and loss of mitochondrial membrane potential (ΔΨm) induced by CGP37157 were also examined. Intracellular Ca^2+ concentrations were measured by flow cytometry using red-emitting Ca^2+ probes, Rhod-2 (a mitochondrial Ca^2+ probe) and Rhod-4 (a cytosolic Ca^2+ probe). Jurkat cells were stained with Rhod-2/AM or Rhod-4/AM (at 5 μM) and then treated with CGP37157 (100 μM) or 4 (5 μM) for a given period of incubation, immediately after which the emission intensity of Rhod-2 and Rhod-4 was measured by flow cytometry. […]
In a 1.5 mL Eppendorf tube, Jurkat cells (2.0 × 10^5 cells) were incubated in the presence of Rhod-2/AM (5 μM, 100 μL) or Rhod-4/AM (5 μM, 100 μL) in 10% FBS/RPMI 1640 medium for 30 min at 37 °C under 5% CO2 and then treated with 4 (5 μM, 0–30 min) or CGP37157 (100 μM, 0–6 h) in 10% FBS/RPMI 1640 medium (100 μL) for 30 min at 37 °C under 5% CO2. Immediately after the treatment, 10% FBS/RPMI 1640 medium (300 μL) was added to the cells and the samples were analyzed on a flow cytometer (FACSCalibur cytometer, Becton). The data were analyzed on FlowJo software (FlowJo, LCC).

[4] = system: Jurkat cells
Description: The cytotoxicity of 4 against Jurkat cells was evaluated by conducting MTT assays [MTT = 3-(4,5-dimethyl-2-thiazolyl)-2,5-diphenyl-2H-tetrazolium bromide] as a function of time and by microscopic observations to determine the appropriate conditions for mechanistic studies of paraptosis (Figure 1).
It was reported that an inhibitor of a mitochondrial Na^+/Ca^2+ exchanger (mNCX), which functions to export Ca^2+ from the mitochondrial matrix to the cytosol in exchange with cytosolic Na^+, affects the mitochondrial Ca^2+ concentration.[60]−[63],[88]−[90] We therefore examined the cytotoxicity of CGP37157 (Chart 2), a typical inhibitor of mNCX,[60],[61],[88]−[90] against Jurkat cells by means of an MTT assay. […] For microscopic observations, Jurkat cells were treated with CGP37157 (100 μM) for 0–24 h, and cell death was observed after treatment with CGP37157 for 12–24 h, by staining with propidium iodide (PI) (Figure 3B).
HeLa S3 and A549 cells (2.0 × 10^4 cells/well) were seeded on a 96-well plate (BD Falcon) in cell culture medium and incubated overnight at 37 °C under 5% CO2. Jurkat (2.0 × 10^4 cells/well), HeLa S3, and A549 cells were treated with 4 (0–25 μM) and CGP37157 (0–100 μM) for 1, 3, 6, 12, and 24 h at 37 °C under 5% CO2, after which a MTT solution in PBS (0.5%, 10 μL) was added to each well.
Statistical analyses of MTT assays were performed by using Graphpad Prism 9 software with the Student’s t test. Data are presented as means ± the standard deviation of three independent experiments, and a P of <0.05 was considered to indicate a statistically significant difference.

For `O=C1CSC(c2ccccc2Cl)c2cc(Cl)ccc2N1` (stereo not shown) [CGP37157], the “Morphological change by TEM” value ([1]; CGP37157 100 μM, 12 h) was “cytoplasmic vacuolization”, the “Overlap of MitoTracker Green and ER-Tracker Red emission (mitochondria-ER membrane fusion)” value ([2]; CGP37157 100 μM, 6 h) was “extensively overlapped” and the “Emission of Rhod-4 (cytosolic Ca2+)” value ([3]; CGP37157 100 μM, 1–6 h) was “small emission enhancement”. The EC50 ([4]; 12 h incubation, 10% FBS/RPMI 1640, 37 °C, 5% CO2, read-out: EC50 (MTT, Jurkat cells)) was 74 µM and the EC50 ([4]; 24 h incubation, 10% FBS/RPMI 1640, 37 °C, 5% CO2, read-out: EC50 (MTT, Jurkat cells)) was 55 µM.
With `NCCCC[C@H](NC(=O)[C@H](CCCCN)NC(=O)[C@@H](N)CCCCN)C(=O)NCC(=O)NCC(=O)NCCCCCCCCNC(=O)COc1ccc(-c2ccccn2)cc1` [compound 4] (H-KKKGG-X1) the “Morphological change by TEM” value ([1]; 4 at 5 μM, 3 h) was “cytoplasmic vacuolization”, the “Overlap of MitoTracker Green and ER-Tracker Red emission (mitochondria-ER membrane fusion)” value ([2]; 4 at 5 μM, 10 min) was “extensively overlapped” and the “Emission of Rhod-4 (cytosolic Ca2+)” value ([3]; 4 at 5 μM, 10–30 min) was “small emission enhancement”. The EC50 ([4]; 1 h) was 3.2 µM, the EC50 ([4]; 3 h) was 2 µM and the EC50 ([4]; 6 h) was 1.5 µM. It also gave an EC50 ([4]; 12 h) of 1.2 µM and an EC50 ([4]; 24 h) of 1.7 µM.
